15 compounds from US10100010B1, “4-methoxy pyrrole derivatives or salts thereof and pharmaceutical composition comprising the same” (Daewoong Pharmaceutical Co., Ltd., priority 2015, dated 2018) can be followed below.

SMILES strings stand for the structures. pIC50: −log10 of the molar value. Where a name gives a salt, the structure may show the parent alone. Read-outs that look alike come from different tables or passages of the source.

What all share (format): cell-based
For one test, the target named is T1, M1 (Homo sapiens, UniProt P11229).
T1 sequence (P11229 1-460): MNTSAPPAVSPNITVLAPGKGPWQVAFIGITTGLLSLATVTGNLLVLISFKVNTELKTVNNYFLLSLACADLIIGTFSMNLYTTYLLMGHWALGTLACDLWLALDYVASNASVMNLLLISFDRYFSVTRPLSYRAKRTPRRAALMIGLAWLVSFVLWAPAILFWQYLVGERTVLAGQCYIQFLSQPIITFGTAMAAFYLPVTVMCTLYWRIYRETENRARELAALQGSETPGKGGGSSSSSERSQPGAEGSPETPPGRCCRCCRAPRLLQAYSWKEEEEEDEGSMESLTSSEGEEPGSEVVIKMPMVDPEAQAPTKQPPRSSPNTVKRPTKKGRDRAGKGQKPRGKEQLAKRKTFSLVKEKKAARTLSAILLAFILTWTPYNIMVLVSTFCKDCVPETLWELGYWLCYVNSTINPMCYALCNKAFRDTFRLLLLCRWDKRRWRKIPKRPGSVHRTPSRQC
The experiment in a line: GPCR Calcium Flux assay (FLIPR tetra, Eurofins), M1. The note with it: for inhibition at 10 µM: read-out: inhibition rate (%) M1; for pIC50: 8 concentrations 10 to 0.0006 uM, read-out: 50% inhibitory concentration (IC50) M1. The method, then: (§1) In order to confirm whether the compounds prepared in the above Examples act as an agonist or antagonist against GPCR Target, Calcium Flux assay was performed in an assay plate in which the compounds prepared in the Examples, vehicle controls, and reference compounds were added, using a Fluorometric imaging plate reader (FLIPR tetra) equipment.
(§2) Calcium Flux assay was evaluated by entrusting the GPCR profiler assay in Safety panel assays with Eurofins. By using the Fluo-8AM calcium dye, excitation was measured at a wavelength in the range of 470 to 495 nm and Emission was measured at a wavelength in the range of 515-575 nm. GPCR Assay Buffer for Calcium Flux assay was prepared by adding 20 mM of HEPES and 2.5 mM of Probenecid to Hanks Balanced Salt Solution (HBSS) to have pH 7.4. The Compounds of Examples for evaluation of the GPCR were diluted with DMSO at a concentration of 10 mM to make a stock and then prepared by diluting in the GPCR Assay Buffer at the concentration equivalent to three times the final concentration. First, for the evaluation of GPCRs, the inhibitory activity of the compounds of the Examples was evaluated at a single concentration of 10 uM, and then the respective selected targets were four fold-diluted from 10 uM to the low side to calculate 50% inhibitory concentration (IC50), prepared at the total 8 concentrations of 10, 2.5, 0.62, 0.15, 0.04, 0.01, 0.0024, 0.0006 uM, and Calcium Flux assay for GPCR was conducted. In order to evaluate the agonist and antagonist, % inhibition rate against GPCR activity before and after treatment of the compounds and the inhibitory activity of the compounds of the Examples were determined.
(§3) As a result, when the efficacy of […] and acetylcholine of the compounds prepared in the Examples was 100%, the inhibition rate (%) at a single concentration of 10 uM was evaluated and shown in Table 8.

Another test has as its target T2, M2 (Homo sapiens, UniProt P08172).
T2 sequence (P08172 1-466): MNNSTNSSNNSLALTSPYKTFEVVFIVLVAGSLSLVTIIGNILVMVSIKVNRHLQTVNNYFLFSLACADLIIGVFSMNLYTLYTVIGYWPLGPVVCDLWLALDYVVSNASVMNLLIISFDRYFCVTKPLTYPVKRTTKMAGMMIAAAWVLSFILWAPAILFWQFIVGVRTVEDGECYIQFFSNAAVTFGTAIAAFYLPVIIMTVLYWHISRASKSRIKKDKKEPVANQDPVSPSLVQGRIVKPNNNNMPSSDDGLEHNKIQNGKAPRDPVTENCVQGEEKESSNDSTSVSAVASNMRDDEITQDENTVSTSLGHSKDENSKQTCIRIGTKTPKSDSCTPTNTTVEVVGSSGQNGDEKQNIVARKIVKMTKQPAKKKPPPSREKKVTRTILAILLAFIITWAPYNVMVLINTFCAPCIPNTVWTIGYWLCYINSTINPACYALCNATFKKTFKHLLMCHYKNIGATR
The experiment in a line: GPCR Calcium Flux assay (FLIPR tetra, Eurofins), M2. The note with it: for inhibition at 10 µM: read-out: inhibition rate (%) M2; for pIC50: 8 concentrations 10 to 0.0006 uM, read-out: 50% inhibitory concentration (IC50) M2. The method, then: as §1, §2, §3

The target of the next test is 5-HT2A (Homo sapiens, UniProt P28223). The experiment in a line: GPCR Calcium Flux assay (FLIPR tetra, Eurofins), 5-HT2A. The note with it: for inhibition at 10 µM: read-out: inhibition rate (%) 5-HT2A; for pIC50: 8 concentrations 10 to 0.0006 uM, read-out: 50% inhibitory concentration (IC50) 5-HT2A. The method, then:
as §1, §2, §3

5-HT2A, sequence (P28223 whole entry): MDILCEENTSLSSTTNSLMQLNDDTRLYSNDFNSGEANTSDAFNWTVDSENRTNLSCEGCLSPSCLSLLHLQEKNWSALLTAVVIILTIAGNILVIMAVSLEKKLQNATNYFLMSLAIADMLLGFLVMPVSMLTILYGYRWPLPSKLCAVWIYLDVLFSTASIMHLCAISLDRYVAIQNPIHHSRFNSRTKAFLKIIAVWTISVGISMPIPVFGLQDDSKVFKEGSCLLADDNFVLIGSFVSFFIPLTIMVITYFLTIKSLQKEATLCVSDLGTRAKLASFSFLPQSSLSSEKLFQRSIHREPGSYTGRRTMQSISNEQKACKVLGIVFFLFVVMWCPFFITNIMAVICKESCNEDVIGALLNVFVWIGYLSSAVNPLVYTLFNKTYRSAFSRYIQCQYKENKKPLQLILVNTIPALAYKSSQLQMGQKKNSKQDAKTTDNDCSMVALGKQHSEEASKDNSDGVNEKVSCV

Take `CNCc1cn(S(=O)(=O)c2cccc(C(F)(F)F)c2)c(-c2ccc(F)cc2F)c1OC` [Example 9, 1-(5-(2,4-difluorophenyl)-1-((3-(trifluoromethyl)phenyl)sulfonyl)-4-methoxy-1H-pyrrol-3-yl)-N-methylmethanamine hydrochloride]: the inhibition at 10 µM on M1 (single concentration of 10 uM) stood at 74.7%; at M2 (single concentration of 10 uM), 18.3%; on 5-HT2A (single concentration of 10 uM), 61.1%.
In the case of `CNCc1cn(S(=O)(=O)c2cccc(Cl)c2)c(-c2c(F)cccc2F)c1OC` [Example 14, 1-(5-(2,6-difluorophenyl)-1-((3-chlorophenyl)sulfonyl)-4-methoxy-1H-pyrrol-3-yl)-N-methylmethanamine hydrochloride], the inhibition at 10 µM at M1 (single concentration of 10 uM) stood at 94.9%; at M2 (single concentration of 10 uM), 48.1%; on 5-HT2A (single concentration of 10 uM), 99.9%. Moreover, the pIC50 on 5-HT2A is 6.68.
On to `CNCc1cn(S(=O)(=O)c2cccc(OC(F)F)c2)c(-c2ccc(F)cc2F)c1OC` [Example 12, 1-(5-(2,4-difluorophenyl)-1-((3-difluoromethoxyphenyl)sulfonyl)-4-methoxy-1H-pyrrol-3-yl)-N-methylmethanamine hydrochloride], for which the inhibition at 10 µM at M1 (single concentration of 10 uM) came to 93.1%; on M2 (single concentration of 10 uM) it was 28.7%; on 5-HT2A (single concentration of 10 uM), 101%.
The like results for `CNCc1cn(S(=O)(=O)c2cccc(C(F)(F)F)c2)c(-c2c(F)ccc(F)c2F)c1OC` [Example 29, 1-(1-((3-trifluoromethylphenyl)sulfonyl)-4-methoxy-5-(2,3,6-trifluorophenyl)-1H-pyrrol-3-yl)-N-methylmethanamine hydrochloride] were, in that order, 68.4%, 19.4% and 35.7%.
The like results for `CNCc1cn(S(=O)(=O)c2cccc(OC)c2)c(-c2ccccc2Cl)c1OC` [Example 5, 1-(5-(2-chlorophenyl)-4-methoxy-1-((3-methoxyphenyl)sulfonyl)-1H-pyrrol-3-yl)-N-methylmethanamine hydrochloride] were, in that order, 93.7%, 75.1% and 69.1%.
The like results for `CNCc1cn(S(=O)(=O)c2cccc(C(F)(F)F)c2)c(-c2c(F)cccc2F)c1OC` [Example 15, 1-(5-(2,6-difluorophenyl)-1-((3-(trifluoromethyl)phenyl)sulfonyl)-4-methoxy-1H-pyrrol-3-yl)-N-methylmethanamine hydrochloride] were, in that order, 87.1%, 62.1% and 30.1%.
With `CNCc1cn(S(=O)(=O)c2cccc(C)c2)c(-c2c(F)cccc2F)c1OC` [Example 16, 1-(5-(2,6-difluorophenyl)-1-((3-methylphenyl)sulfonyl)-4-methoxy-1H-pyrrol-3-yl)-N-methylmethanamine fumarate], the pIC50 is 5.72 at M1 and 7.24 at 5-HT2A. For the same compound, the inhibition at 10 µM was 95.4% on M1, 69.7% at M2 and 102% on 5-HT2A.
Consider `CNCc1cn(S(=O)(=O)c2ccc(F)c(F)c2)c(-c2c(F)cccc2F)c1OC` [Example 19, 1-(5-(2,6-difluorophenyl)-1-((3,4-difluorophenyl)sulfonyl)-4-methoxy-1H-pyrrol-3-yl)-N-methylmethanamine hydrochloride], for which the pIC50 on M1 was 6.37; on M2, 6.09; on 5-HT2A, 6.92. Also, the figures for the inhibition at 10 µM on M1 (single concentration of 10 uM), on M2 (single concentration of 10 uM) and on 5-HT2A (single concentration of 10 uM) were 101%, 102% and 102%, respectively.
Regarding `CNCc1cn(S(=O)(=O)c2cccc(OC)c2)c(-c2cc(F)ccc2F)c1OC` [Example 33, 1-(5-(2,5-difluorophenyl)-1-((3-methoxyphenyl)sulfonyl)-4-methoxy-1H-pyrrol-3-yl)-N-methylmethanamine hydrochloride], the values for the inhibition at 10 µM on M1 (single concentration of 10 uM), at M2 (single concentration of 10 uM) and at 5-HT2A (single concentration of 10 uM) were 81.5%, 29% and 96.7%, respectively. Further, at 5-HT2A, the pIC50 is 5.77.
Consider `CNCc1cn(S(=O)(=O)c2cccc(Cl)c2)c(-c2c(F)ccc(F)c2F)c1OC` [Example 28, 1-(1-((3-chlorophenyl)sulfonyl)-4-methoxy-5-(2,3,6-trifluorophenyl)-1H-pyrrol-3-yl)-N-methylmethanamine hydrochloride], for which the values for the pIC50 at M1 and on 5-HT2A were 6.26 and 7.17, respectively. The inhibition at 10 µM on M1 (single concentration of 10 uM) is 99.4%; on M2 (single concentration of 10 uM), 61.9%; on 5-HT2A (single concentration of 10 uM), 97.6%.
As to `CNCc1cn(S(=O)(=O)c2cccc(C(F)(F)F)c2)c(-c2c(F)cc(F)cc2F)c1OC` [Example 24, 1-(1-((3-trifluoromethylphenyl)sulfonyl)-4-methoxy-5-(2,4,6-trifluorophenyl)-1H-pyrrol-3-yl)-N-methylmethanamine hydrochloride], the pIC50 was under 6.00 on M1, under 5.00 at M2 and 7.21 on 5-HT2A. Also, the inhibition at 10 µM on M1 (single concentration of 10 uM) came to 93.4%; at M2 (single concentration of 10 uM), 22%; at 5-HT2A (single concentration of 10 uM), 62.2%.
In the case of `CNCc1cn(S(=O)(=O)c2cccc(C)c2)c(-c2ccc(F)cc2F)c1OC` [Example 10, 1-(5-(2,4-difluorophenyl)-1-((3-methylphenyl)sulfonyl)-4-methoxy-1H-pyrrol-3-yl)-N-methylmethanamine hydrochloride], the pIC50 at M1 was 5.89; at 5-HT2A, 6.44. For the same compound, the inhibition at 10 µM on M1 (single concentration of 10 uM) was found to be 96.2%; at M2 (single concentration of 10 uM), 77.6%; on 5-HT2A (single concentration of 10 uM), 101%.
Turning to `CNCc1cn(S(=O)(=O)c2cccc(OC)c2)c(-c2ccccc2F)c1OC` [Example 3, 1-(5-(2-fluorophenyl)-4-methoxy-1-((3-methoxyphenyl)sulfonyl)-1H-pyrrol-3-yl)-N-methylmethanamine hydrochloride], the figures for the inhibition at 10 µM on M1 (single concentration of 10 uM), at M2 (single concentration of 10 uM) and at 5-HT2A (single concentration of 10 uM) were 87%, 76.9% and 94%, respectively. Further, the pIC50 at 5-HT2A is 6.74.
Consider `CNCc1cn(S(=O)(=O)c2cccc(F)c2)c(-c2c(F)cccc2Cl)c1OC` [Example 20, 1-(5-(2-fluoro-6-chlorophenyl)-1-((3-fluorophenyl)sulfonyl)-4-methoxy-1H-pyrrol-3-yl)-N-methylmethanamine hydrochloride], for which the inhibition at 10 µM on M1 (single concentration of 10 uM) amounted to 103%; on M2 (single concentration of 10 uM), 90.5%; at 5-HT2A (single concentration of 10 uM), 99.2%.
Regarding `CNCc1cn(S(=O)(=O)c2cccc(Cl)c2)c(-c2ccc(Cl)cc2F)c1OC` [Example 6, 1-(5-(2-fluoro-4-chlorophenyl)-4-methoxy-1-((3-chlorophenyl)sulfonyl)-1H-pyrrol-3-yl)-N-methylmethanamine hydrochloride], the pIC50 at M1 was about 5.52; on 5-HT2A, 6.80. In addition, the inhibition at 10 µM at M1 (single concentration of 10 uM) came to 93.1%; at M2 (single concentration of 10 uM) it was 15.1%; on 5-HT2A (single concentration of 10 uM), 102%.
